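Assay format: 96-well plates, 48-hour exposure. GI50 marks 50% less growth.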 Activity calls are given as the source filed them. Rule as the data show it: active = GI50 up to about 1.1 µM and inactive = higher.
Legend:
Test in all cases: NCI-60 cell line screen, 48 h
A498 = test system: A498
BT-549 = test system: BT-549
CAKI-1 = test system: CAKI-1
COLO 205 = test system: COLO 205
HL-60 = test system: HL-60
IGROV-1 = test system: IGROV-1
K562 = test system: K562
MCF7 = test system: MCF7
MDA-MB-231 = test system: MDA-MB-231
MDA-MB-435 = test system: MDA-MB-435
MDA-N = test system: MDA-N
Malme-3M = test system: Malme-3M
NCI-H522 = test system: NCI-H522
OVCAR-4 = test system: OVCAR-4
PC-3 = test system: PC-3
SF-295 = test system: SF-295
SF-539 = test system: SF-539
SR = test system: SR
T47D = test system: T47D
SNB-75 = test system: SNB-75

SMILES | GI50 (A498) | GI50 (BT-549) | GI50 (CAKI-1) | GI50 (COLO 205) | GI50 (HL-60) | GI50 (IGROV-1) | GI50 (K562) | GI50 (MCF7) | GI50 (MDA-MB-231) | GI50 (MDA-MB-435) | GI50 (MDA-N) | GI50 (Malme-3M) | GI50 (NCI-H522) | GI50 (OVCAR-4) | GI50 (PC-3) | GI50 (SF-295) | GI50 (SF-539) | GI50 (SR) | GI50 (T47D) | GI50 (SNB-75)
CC(C)C(/N=C/c1ccccc1O)C(=O)O (configuration not stated) | > 100 µM (inactive) | > 100 µM (inactive) | > 100 µM (inactive) | > 100 µM (inactive) | > 100 µM (inactive) | > 100 µM (inactive) | > 100 µM (inactive) | > 100 µM (inactive) | 87.9 µM (inactive) | > 100 µM (inactive) | > 100 µM (inactive) | 55.3 µM (inactive) | > 100 µM (inactive) | > 100 µM (inactive) | 87.7 µM (inactive) | > 100 µM (inactive) | > 100 µM (inactive) | > 100 µM (inactive) | > 100 µM (inactive) | –
CC(C)(C)OC(=O)N(O)CCCn1cnc2c(NC3CC3)ncnc21 | > 100 µM (inactive) | > 100 µM (inactive) | > 100 µM (inactive) | > 100 µM (inactive) | – | 75.3 µM (inactive) | > 100 µM (inactive) | > 100 µM (inactive) | > 100 µM (inactive) | > 100 µM (inactive) | > 100 µM (inactive) | > 100 µM (inactive) | > 100 µM (inactive) | > 100 µM (inactive) | > 100 µM (inactive) | > 100 µM (inactive) | > 100 µM (inactive) | > 100 µM (inactive) | > 100 µM (inactive) | 35.1 µM (inactive)
Cc1ccc(C2SC(=N)Nc3c2c(C)nn3C(=O)c2ccc(Cl)cc2)cc1 (configuration not stated) | – | > 10 µM (inactive) | > 10 µM (inactive) | > 10 µM (inactive) | > 10 µM (inactive) | > 10 µM (inactive) | > 10 µM (inactive) | > 10 µM (inactive) | > 10 µM (inactive) | > 10 µM (inactive) | > 10 µM (inactive) | > 10 µM (inactive) | > 10 µM (inactive) | > 10 µM (inactive) | > 10 µM (inactive) | > 10 µM (inactive) | > 10 µM (inactive) | > 10 µM (inactive) | > 10 µM (inactive) | > 10 µM (inactive)
COc1c(/C=C/C(C)(C)O)cc(C2CC(=O)c3c(O)cc(O)cc3O2)cc1CC=C(C)C (configuration not stated) | 9.48 µM (inactive) | 8.49 µM (inactive) | 16 µM (inactive) | 9.35 µM (inactive) | 12.8 µM (inactive) | – | 10.7 µM (inactive) | 8.51 µM (inactive) | 8.22 µM (inactive) | 8.02 µM (inactive) | 9.53 µM (inactive) | 10.1 µM (inactive) | 9.27 µM (inactive) | 10.4 µM (inactive) | 8.53 µM (inactive) | 7.26 µM (inactive) | 9.4 µM (inactive) | – | 11 µM (inactive) | 9.86 µM (inactive)
O=C1CSC(=S)N1c1ccc(F)cc1F | 67.9 µM (inactive) | 39.6 µM (inactive) | 45.3 µM (inactive) | 46.2 µM (inactive) | – | 51.6 µM (inactive) | – | 21.7 µM (inactive) | > 100 µM (inactive) | 35.6 µM (inactive) | 36.3 µM (inactive) | 66.5 µM (inactive) | 18 µM (inactive) | 49.2 µM (inactive) | > 100 µM (inactive) | 44.8 µM (inactive) | 38.7 µM (inactive) | – | 30 µM (inactive) | 42.3 µM (inactive)
CNC(=O)C1OC(n2cnc3c(NCc4cccc(I)c4)nc(Cl)nc32)C(O)C1O (configuration not stated) | 13.8 µM (inactive) | 14.1 µM (inactive) | 19.3 µM (inactive) | 22.5 µM (inactive) | 15.3 µM (inactive) | 14.1 µM (inactive) | 12.9 µM (inactive) | 12.8 µM (inactive) | 22.8 µM (inactive) | 11.3 µM (inactive) | 20.7 µM (inactive) | 3.64 µM (inactive) | – | – | 11.9 µM (inactive) | 18.7 µM (inactive) | 11 µM (inactive) | 14 µM (inactive) | 15.6 µM (inactive) | 0.839 µM (active)
CC(=O)OCCC[C@@H]1C(=C(C)C)CCC2[C@@]1(C)CC[C@@]1(C)C[C@](C)(CCC=C(C)C)CC[C@]21C (some centres not stated) | > 100 µM (inactive) | > 100 µM (inactive) | > 100 µM (inactive) | > 100 µM (inactive) | > 100 µM (inactive) | > 100 µM (inactive) | – | > 100 µM (inactive) | > 100 µM (inactive) | > 100 µM (inactive) | > 100 µM (inactive) | > 100 µM (inactive) | > 100 µM (inactive) | > 100 µM (inactive) | 18.5 µM (inactive) | > 100 µM (inactive) | > 100 µM (inactive) | – | > 100 µM (inactive) | 7.94 µM (inactive)
COc1cc(/C=C2\N=C(c3ccccc3)N(c3nc4c(OC)ccc(OC)c4s3)C2=O)cc(OC)c1OC | > 100 µM (inactive) | > 100 µM (inactive) | > 100 µM (inactive) | 30.4 µM (inactive) | 30.4 µM (inactive) | > 100 µM (inactive) | 34.8 µM (inactive) | 34.3 µM (inactive) | > 100 µM (inactive) | 31.3 µM (inactive) | 35.8 µM (inactive) | > 100 µM (inactive) | 35.7 µM (inactive) | > 100 µM (inactive) | 59.7 µM (inactive) | > 100 µM (inactive) | – | – | 32.4 µM (inactive) | > 100 µM (inactive)
O=C(CCCCCCCCC(=O)N1C(=O)CC(=O)N(c2cccc(Cl)c2)C1=S)N1C(=O)CC(=O)N(c2cccc(Cl)c2)C1=S | 39.9 µM (inactive) | 44.1 µM (inactive) | 20.5 µM (inactive) | 37.3 µM (inactive) | – | – | – | 34.3 µM (inactive) | 24.6 µM (inactive) | 59.8 µM (inactive) | 41.2 µM (inactive) | 66.1 µM (inactive) | 16.3 µM (inactive) | 37.7 µM (inactive) | 26.6 µM (inactive) | 28.1 µM (inactive) | – | 26.1 µM (inactive) | 37 µM (inactive) | 33.3 µM (inactive)
O=C1c2ccccc2C(C2c3ccccc3C(=O)c3cc(Br)ccc32)c2ccc(Br)cc21 (configuration not stated) | > 100 µM (inactive) | > 100 µM (inactive) | > 100 µM (inactive) | > 100 µM (inactive) | < 0.01 µM (active) | > 100 µM (inactive) | 31.8 µM (inactive) | > 100 µM (inactive) | > 100 µM (inactive) | > 100 µM (inactive) | > 100 µM (inactive) | > 100 µM (inactive) | > 100 µM (inactive) | > 100 µM (inactive) | > 100 µM (inactive) | > 100 µM (inactive) | – | – | > 100 µM (inactive) | > 100 µM (inactive)
CCCCCCCC1(N=[N+]=[N-])C(=O)Nc2ccccc2C1=O (configuration not stated) | 0.971 µM (active) | 16.7 µM (inactive) | 14.7 µM (inactive) | 20 µM (inactive) | > 10 µM (inactive) | 12.1 µM (inactive) | 16.4 µM (inactive) | 19.1 µM (inactive) | 21.7 µM (inactive) | 18.2 µM (inactive) | 19.8 µM (inactive) | 17.7 µM (inactive) | – | 16.2 µM (inactive) | 11.5 µM (inactive) | 17.3 µM (inactive) | 15.7 µM (inactive) | 24.2 µM (inactive) | 14.6 µM (inactive) | 14 µM (inactive)
c1ccc(C[N+]23CN4CN(CN(C4)C2)C3)cc1 | > 100 µM (inactive) | 48.2 µM (inactive) | 45.9 µM (inactive) | 18.5 µM (inactive) | 24.1 µM (inactive) | 52.2 µM (inactive) | 29.7 µM (inactive) | 30.1 µM (inactive) | 20.1 µM (inactive) | 22 µM (inactive) | 94.4 µM (inactive) | 57.7 µM (inactive) | > 100 µM (inactive) | 36.5 µM (inactive) | 17 µM (inactive) | > 100 µM (inactive) | 28.6 µM (inactive) | – | 28.4 µM (inactive) | 45.6 µM (inactive)
O=S1(=O)c2ccccc2-c2nccc3ccnc1c23 | 27.5 µM (inactive) | 3.77 µM (inactive) | 15.3 µM (inactive) | 3.99 µM (inactive) | 4.76 µM (inactive) | 7.67 µM (inactive) | 4.33 µM (inactive) | 6.4 µM (inactive) | 17.8 µM (inactive) | 11.9 µM (inactive) | 7.87 µM (inactive) | 21.8 µM (inactive) | 8.07 µM (inactive) | 37.9 µM (inactive) | 7.31 µM (inactive) | 25 µM (inactive) | 8.57 µM (inactive) | – | 29.4 µM (inactive) | 27.7 µM (inactive)
FC1(F)SC2CCCCCCCCCCC2C1(F)F (configuration not stated) | – | 44 µM (inactive) | 59.6 µM (inactive) | 18.6 µM (inactive) | 15.4 µM (inactive) | 76 µM (inactive) | 15.3 µM (inactive) | 20.2 µM (inactive) | 22.8 µM (inactive) | 28.3 µM (inactive) | 37.6 µM (inactive) | 21.8 µM (inactive) | 21.8 µM (inactive) | 22.1 µM (inactive) | 42.6 µM (inactive) | 28.6 µM (inactive) | – | 67.5 µM (inactive) | 30.9 µM (inactive) | 30.6 µM (inactive)
COc1cc2c(cc1OC)CN1CCCc3cc(OC)c(OC)cc3C1C2 (configuration not stated) | – | 99.3 µM (inactive) | 38.6 µM (inactive) | 40.9 µM (inactive) | – | 22 µM (inactive) | 48.3 µM (inactive) | 31 µM (inactive) | 56.5 µM (inactive) | 18.1 µM (inactive) | 17.3 µM (inactive) | 30.3 µM (inactive) | 29.4 µM (inactive) | 62.4 µM (inactive) | 39.8 µM (inactive) | 12.9 µM (inactive) | 24.3 µM (inactive) | – | 22.9 µM (inactive) | 13.2 µM (inactive)

Reference: ChEMBL document CHEMBL1201862, “PubChem BioAssay data set” (2004)
